Values of other authors in patent publication US20180305742A1, “USE OF ESTROGENIC COMPOUNDS TO […] BACTERIAL COMPOSITION OF VAGINAL COMMUNITIES” (University of Idaho, priority 2017, published 2018).

System: estrogen receptor

SMILES: C[C@]12CC[C@@H]3c4ccc(O)cc4CC[C@H]3[C@@H]1C[C@@H](O)[C@@H]2O [Estriol, estriol]
- potency relative to estradiol (as potent as estradiol): 8%
- potency relative to estrone (as potent as estrone): 14%
